Results: paper PMC9886550, “Molecular mechanism of topoisomerase poisoning by the peptide antibiotic albicidin” (Nature Catalysis, 2023)

Columns and labels:
Type in all cases: biochemical
[1] = target: T1, E. coli gyrase GyrA^V70A (Escherichia coli, UniProt P0AES4+P0AES6, V70A); assay: DNA gyrase cleavage assay (CC50, % cleaved DNA); details: for % maximal cleavage: GyrAV70A, average of 3 independent assays; for EC50: GyrA^V70A; for % cleaved DNA Average: average of replicates
T1 construct: alternative cryo-EM approach involving full-length E. coli gyrase; 10-His (cleaved yes); Twin-Strep (cleaved yes); made in house
Protocol: (§1) For DNA gyrase supercoiling assays to characterize gyrase mutants, 15 µl reactions were set up containing 250 ng of relaxed DNA, E. coli gyrase supercoiling buffer (35 mM Tris–Cl pH 7.5, 24 mM KCl, 4 mM MgCl2, 2 mM DTT, 1.8 mM spermidine, 1 mM ATP, 6.0% (w/v) glycerol, and 0.1 mg ml^−1 BSA), gyrase subunits and inhibitors. Concentrations of enzyme and inhibitor are stated in the figure legends. Inhibitors were diluted in the following way to reduce the chance of precipitation: stock compound in 100% DMSO was diluted to 5 mM in 100% DMSO. This compound solution was diluted to 1 mM by stepwise addition of 1 µl of 50% DMSO with thorough mixing via pipetting after each addition. All subsequent dilutions up to 100 µM were performed in the same way using H2O. After this point, compounds were stable and could be diluted in the normal way. Reactions were incubated at 37 °C for 30 min before stopping with 15 µl chloroform:isoamyl alcohol (24:1 v/v) and 15 µl of STEB (40% (w/v) sucrose, 100 mM Tris–Cl pH 8, 10 mM EDTA, 0.5 mg ml^−1 bromophenol blue).
(§2) Cleavage assays were set up in the same way as supercoiling assays with some modifications. The concentration of enzyme was increased 4-fold relative to the supercoiling assay and reactions were incubated for 1 h before addition of 0.2% SDS and proteinase K (0.2 mg ml^−1) and further incubation at 37 °C for 30 min to trap cleavage complexes. Reactions were stopped in the same way as supercoiling assays.
(§3) Results were visualized by agarose gel electrophoresis: 1% agarose Tris-acetate-EDTA (TAE) gels were run without ethidium bromide (supercoiling) or with 10 µg ml^−1 ethidium bromide (cleavage) at 8 V cm^−1.
(§4) DNA cleavage gels were analysed using densitometry (ImageJ). Experiments were carried out in triplicate and expressed as mean ± s.d. Curves were fitted using OriginPro 2021 (Origin Lab) according to a modified Hill equation:1 y=cI+(cF−cI)[…]/(k^n+x^n) where y is the percentage of cleaved DNA, cI is the initial cleavage, cF is the final cleavage, k is the CC50 (the concentration of inhibitor that results in cleavage of 50% of DNA), n is a slope factor and x is the inhibitor concentration.

[2] = target: T2, E. coli gyrase GyrA^I74M (Escherichia coli, UniProt P0AES4+P0AES6, I74M); assay: DNA gyrase cleavage assay (CC50, % cleaved DNA); details: for % maximal cleavage: GyrAI74M, average of 3 independent assays; for EC50: GyrA^I74M, mean ± s.d. of triplicate; for % cleaved DNA Average: average of replicates
T2 construct: alternative cryo-EM approach involving full-length E. coli gyrase; 10-His (cleaved yes); Twin-Strep (cleaved yes); made in house
Protocol: as §1, §2, §3, §4

[3] = target: T3, E. coli gyrase GyrB^K447W (Escherichia coli, UniProt P0AES4+P0AES6, K447W); assay: DNA gyrase cleavage assay (CC50, % cleaved DNA); details: for % maximal cleavage: GyrBK447W, average of 3 independent assays; for increase in CC50: 60 min; for EC50: GyrB^K447W, mean ± s.d. of triplicate
T3 construct: alternative cryo-EM approach involving full-length E. coli gyrase; 10-His (cleaved yes); Twin-Strep (cleaved yes); made in house
Protocol: as §1, §2, §3, §4

[4] = target: T4, E. coli gyrase GyrA^A67Q (Escherichia coli, UniProt P0AES4+P0AES6, A67Q); assay: DNA gyrase cleavage assay (CC50, % cleaved DNA); details: for % maximal cleavage: GyrAA67Q, average of 3 independent assays; for EC50: GyrA^A67Q, mean ± s.d. of triplicate; for % cleaved DNA Average: average of replicates
T4 construct: alternative cryo-EM approach involving full-length E. coli gyrase; 10-His (cleaved yes); Twin-Strep (cleaved yes); made in house
Protocol: as §1, §2, §3, §4

[5] = target: T5, E. coli gyrase GyrA^S83L (Escherichia coli, UniProt P0AES4+P0AES6, S83L); assay: DNA gyrase cleavage assay (CC50, % cleaved DNA); details: for % maximal cleavage: GyrAS83L, average of 3 independent assays; for EC50: GyrA^S83L, mean ± s.d. of triplicate; for % cleaved DNA Average: average of replicates
T5 construct: alternative cryo-EM approach involving full-length E. coli gyrase; 10-His (cleaved yes); Twin-Strep (cleaved yes); made in house
Protocol: as §1, §2, §3, §4

[6] = target: T6, E. coli gyrase GyrA^M120A (Escherichia coli, UniProt P0AES4+P0AES6, M120A); assay: DNA gyrase cleavage assay (CC50, % cleaved DNA); details: for % maximal cleavage: GyrAM120A, average of 3 independent assays; for EC50: GyrA^M120A, mean ± s.d. of triplicate; for % cleaved DNA Average: average of replicates
T6 construct: alternative cryo-EM approach involving full-length E. coli gyrase; 10-His (cleaved yes); Twin-Strep (cleaved yes); made in house
Protocol: as §1, §2, §3, §4

[7] = target: T7, WT E. coli gyrase (Escherichia coli, UniProt P0AES4+P0AES6); assay: biochemical; details: for % maximal cleavage: GyraseWT, average of 3 independent assays; for EC50: Gyrase^WT, mean ± s.d. of triplicate, read-out: CC50 (the source's name); for % cleaved DNA Average: average of replicates
T7 construct: alternative cryo-EM approach involving full-length E. coli gyrase; 10-His (cleaved yes); Twin-Strep (cleaved yes); made in house
Protocol: as §1, §2, §3, §4

[8] = target: T8, E. coli gyrase GyrA^D72N (Escherichia coli, UniProt P0AES4+P0AES6); details: in words
T8 construct: alternative cryo-EM approach involving full-length E. coli gyrase; 10-His (cleaved yes); Twin-Strep (cleaved yes); made in house
Protocol: as §1
as §2, with “Reactions were stopped in the same way as supercoiling assays.” left out

For `COc1c(NC(=O)c2ccc(NC(=O)c3ccc(NC(=O)[C@H](CC#N)NC(=O)c4ccc(NC(=O)/C(C)=C/c5ccc(O)cc5)cc4)cc3)c(OC)c2O)ccc(C(=O)O)c1O` [Albicidin], the “increase in CC50” value ([1]; 1 h) was greater than 25 fold, the “% maximal cleavage” value [1] was 80±2% and the EC50 ([1]; cell prints its own unit) was 1240 nM. For the same compound, the “% cleaved DNA Average” value ([1]; albicidin 0.025 µM) was 3.14%, the “% cleaved DNA Average” value ([1]; albicidin 0.05 µM) was 4.791% and the “% cleaved DNA Average” value ([1]; albicidin 0.1 µM) was 4.574%. The “% cleaved DNA Average” value ([1]; albicidin 0.25 µM) was 12.5575%, the “% cleaved DNA Average” value ([1]; albicidin 0.5 µM) was 14.0393% and the “% cleaved DNA Average” value ([1]; albicidin 1 µM) was 46.9741%. The “% cleaved DNA Average” value ([1]; albicidin 5 µM) was 65.2533%, the “% cleaved DNA Average” value ([1]; albicidin 10 µM) was 79.6585% and the “% cleaved DNA Average” value ([1]; albicidin 50 µM) was 77.0866%. The “% maximal cleavage” value [2] was 40±10%, the “reduction in the maximal amount of cleavage” value ([2]; GyrA^I74M vs WT gyrase) was ~ 2 fold and the EC50 [2] was 42 ± 7.7 nM. The “% cleaved DNA Average” value ([2]; albicidin 0.0025 µM) was 2.868%, the “% cleaved DNA Average” value ([2]; albicidin 0.005 µM) was 1.835% and the “% cleaved DNA Average” value ([2]; albicidin 0.01 µM) was 6.013%. The “% cleaved DNA Average” value ([2]; albicidin 0.025 µM) was 10.9112%, the “% cleaved DNA Average” value ([2]; albicidin 0.05 µM) was 19.5143% and the “% cleaved DNA Average” value ([2]; albicidin 0.1 µM) was 32.1987%. For the same compound, the “% cleaved DNA Average” value ([2]; albicidin 0.25 µM) was 36.304%, the “% cleaved DNA Average” value ([2]; albicidin 0.5 µM) was 39.8221% and the “% cleaved DNA Average” value ([2]; albicidin 1 µM) was 36.4081%. The “% maximal cleavage” value [3] was 27±2%, the “decrease of the maximal cleavage” value ([3]; GyrB^K447W vs WT gyrase) was 3 fold and the “increase in CC50” value ([3]; GyrB^K447W vs WT gyrase) was 10 fold. The EC50 [3] was 452 ± 108 nM, the “increase in CC50” value ([4]; 1 h) was “more than 10 fold” and the “% maximal cleavage” value [4] was 83±1%. The EC50 [4] was 610 ± 124 nM, the “% cleaved DNA Average” value ([4]; albicidin 0.01 µM) was 3.538% and the “% cleaved DNA Average” value ([4]; albicidin 0.025 µM) was 4.787%. The “% cleaved DNA Average” value ([4]; albicidin 0.05 µM) was 6.475%, the “% cleaved DNA Average” value ([4]; albicidin 0.1 µM) was 6.201% and the “% cleaved DNA Average” value ([4]; albicidin 0.25 µM) was 17.9877%. The “% cleaved DNA Average” value ([4]; albicidin 0.5 µM) was 34.7807%, the “% cleaved DNA Average” value ([4]; albicidin 1 µM) was 60.5747% and the “% cleaved DNA Average” value ([4]; albicidin 5 µM) was 76.5607%. For the same compound, the “% cleaved DNA Average” value ([4]; albicidin 10 µM) was 82.9213%, the “% cleaved DNA Average” value ([4]; albicidin 25 µM) was 77.2008% and the “% cleaved DNA Average” value ([4]; albicidin 50 µM) was 74.453%. The “increase in CC50” value ([5]; 1 h) was 3 fold, the “% maximal cleavage” value [5] was 68±5% and the EC50 [5] was 129 ± 43 nM. The “% cleaved DNA Average” value ([5]; albicidin 0.0025 µM) was 2.652%, the “% cleaved DNA Average” value ([5]; albicidin 0.005 µM) was 2.693% and the “% cleaved DNA Average” value ([5]; albicidin 0.01 µM) was 2.768%. The “% cleaved DNA Average” value ([5]; albicidin 0.025 µM) was 5.278%, the “% cleaved DNA Average” value ([5]; albicidin 0.05 µM) was 12.476% and the “% cleaved DNA Average” value ([5]; albicidin 0.1 µM) was 26.0782%. For the same compound, the “% cleaved DNA Average” value ([5]; albicidin 0.5 µM) was 63.6873%, the “% cleaved DNA Average” value ([5]; albicidin 1 µM) was 64.6552% and the “% cleaved DNA Average” value ([5]; albicidin 5 µM) was 67.9433%. For the same compound, the “% maximal cleavage” value [6] was 72±3%, the EC50 [6] was 50 ± 11 nM and the “% cleaved DNA Average” value ([6]; albicidin 0.0005 µM) was 4.819%. For the same compound, the “% cleaved DNA Average” value ([6]; albicidin 0.001 µM) was 6.609%, the “% cleaved DNA Average” value ([6]; albicidin 0.0025 µM) was 6.667% and the “% cleaved DNA Average” value ([6]; albicidin 0.005 µM) was 6.183%. For the same compound, the “% cleaved DNA Average” value ([6]; albicidin 0.01 µM) was 19.8754%, the “% cleaved DNA Average” value ([6]; albicidin 0.025 µM) was 25.7528% and the “% cleaved DNA Average” value ([6]; albicidin 0.05 µM) was 41.0477%. The “% cleaved DNA Average” value ([6]; albicidin 0.1 µM) was 46.9644%, the “% cleaved DNA Average” value ([6]; albicidin 0.5 µM) was 60.6731% and the “% cleaved DNA Average” value ([6]; albicidin 1 µM) was 72.349%. For the same compound, the “% maximal cleavage” value [7] was 81±2%, the EC50 [7] was 46 ± 3.7 nM and the “% cleaved DNA Average” value ([7]; albicidin 0.0005 µM) was 3.748%. For the same compound, the “% cleaved DNA Average” value ([7]; albicidin 0.0025 µM) was 5.277%, the “% cleaved DNA Average” value ([7]; albicidin 0.005 µM) was 6.761% and the “% cleaved DNA Average” value ([7]; albicidin 0.01 µM) was 11.8941%. The “% cleaved DNA Average” value ([7]; albicidin 0.025 µM) was 24.028%, the “% cleaved DNA Average” value ([7]; albicidin 0.05 µM) was 56.851% and the “% cleaved DNA Average” value ([7]; albicidin 0.1 µM) was 62.7758%. For the same compound, the “% cleaved DNA Average” value ([7]; albicidin 0.25 µM) was 75.7465%, the “% cleaved DNA Average” value ([7]; albicidin 0.5 µM) was 79.6286% and the “% cleaved DNA Average” value ([7]; albicidin 1 µM) was 76.3016%. The “% cleaved DNA Average” value ([7]; albicidin 10 µM) was 81.3635% and the “resistance of the variant judged by the CC50” value [8] was “did not show increased resistance”.
For `CC(C)Oc1c(NC(=O)c2ccc(NC(=O)[C@H](Cc3c[nH]nn3)NC(=O)c3ccc(NC(=O)c4ccc(C#N)cc4)cn3)cn2)ccc(C(=O)Nc2ccc(C(=O)O)cc2)c1O` [Albi-1], the “% maximal cleavage” value [1] was 90±2%, the EC50 ([1]; mean ± s.d. of triplicate) was 16 ± 1.3 nM and the “% maximal cleavage” value [2] was 79±5%. The EC50 [2] was 30 ± 2.7 nM, the “% maximal cleavage” value [3] was 83±3% and the “increase in CC50” value ([3]; GyrB^K447W vs WT gyrase) was “more than 50 fold”. For the same compound, the EC50 [3] was 412 ± 88 nM, the “% maximal cleavage” value [4] was 96±8% and the EC50 [4] was 181 ± 67 nM. For the same compound, the “% maximal cleavage” value [5] was 80±14%, the EC50 [5] was 10 ± 1.5 nM and the “% maximal cleavage” value [6] was 68±3%. The EC50 [6] was 15 ± 1.5 nM, the “% maximal cleavage” value [7] was 73±6% and the EC50 [7] was 8 ± 2.7 nM. For the same compound, the “resistance of the variant judged by the CC50” value [8] was “did not show increased resistance”.
